Laboratory results as given in patent publication US20190212343A1, “METHODS FOR THE TREATMENT OF DISORDERS RELATED TO PHOSPHORYLATION OF HISTONES” (H. LEE MOFFITT CANCER CENTER AND RESEARCH INSTITUTE, INC., priority 2014, published 2019).
Entries after “also recorded” stand apart in the source; their conditions may differ.

Key:
AR mRNA = AR mRNA levels in androgen-deprived prostate cancer cells (qPCR with AR primers); assay type: cell-based, human; conditions: androgen-deprived LAPC4 and LNCaP cells, overnight treatment
ACK1 = molecular target: T1, ACK1 (Homo sapiens, UniProt Q07912); assay: In vitro kinase assay with purified ACK1 and H4, immunoblotting with pTyr antibodies; assay type: biochemical; conditions: purified ACK1 and H4, AIM-100 100 nM
T1 construct: made in house; host or cells: insect cells
Method: FIGS. 9A-9E show ACK1 phosphorylates histone H4 at Tyrosine 88. (FIG. 9A) peptide were spotted followed by immunoblotting with indicated antibodies. (FIG. 9B) Equimolar amounts of purified ACK1 and H4 proteins were incubated in the presence of AIM-100 (100 nM) and reaction subjected to immunoblotting with pTyr antibodies. (FIG. 9C) In vitro kinase assay performed using purified ACK1 and H4, followed by immunoblotting with pY88-H4 antibodies. (FIG. 9D) H4 Y88-phosphorylation in vivo. LNCaP cells were treated with DZI-067, AIM-100 or Enzalutamide (7 uM, 16 hrs). The nuclear lysates were immunoprecipitated with pY88-H4 antibodies followed by immunoblotting with H4. Lower panel is input lysate. (FIG. 9E) LNCaP cells were treated with Crizotinib (1 uM, 16 hrs). The cell lysates were immunoprecipitated with pY88-H4 antibodies followed by immunoblotting with H4 (upper panel). Lower panel is input lysate immunblotted with H4 antibodies.
To assess direct binding of Ack1 to H4, in vitro kinase assay was performed using purified Ack1 and H4 (New England Biolabs). Human Ack1 were expressed in insect cells and purified to homogeneity (unpublished data). Immunoblotting with pY88-H4 and pTyr antibodies confirmed that indeed H4 is directly Tyr-phosphorylated by Ack1 (FIG. 9B).

[1] = test system: histone H3 Tyr99-phosphorylation (ACK1); assay: Histone H3 Tyr99-phosphorylation in HEK293 cells (pY99-H3 immunoprecipitation / H3 immunoblot); assay type: cell-based; conditions: HEK293 cells
Method: FIGS. 3A-3E show Ack1 phosphoryltes H3 at Tyr99 residue. […] (FIG. 3B) HEK293 cells co-expressing Myc-tagged Ack1 (WT) or KD mutant ACK1 and FLAG-tagged H3 or Y99F mutant […] were serum-starved (24h) and lysates were immunoprecipitated with pY99-H3 antibodies followed by immunoblotting with FLAG antibody (top panel). (FIG. 3C) HEK293 cells were treated with EGF ligand for indicated time points. Equal amounts of lysates were immunoprecipitated pY99-H3 antibodies followed by with immunoblotting with H3 antibody (top panel). (FIG. 3D) HEK293 cells were treated with ACK1 inhibitor, AIM-100 (5 uM overnight) and/or EGF ligand 20 min. Equal amounts of lysates were immunoprecipitated pY99-H3 antibodies followed by with immunoblotting with H3 antibody (top panel). […] (FIG. 3E) HEK293 cells were treated with increasing concentrations of AIM-100 (1, 2, 3 and 5 μM). Equal amounts of lysates were immunoprecipitated pY99-H3 antibodies followed by with immunoblotting with H3 antibody (top panel).
The Tyrosine99 or Y99 site in H3 protein is evolutionarily conserved (FIG. 3A). To examine whether H3 is ACK1 kinase substrate, HEK293 cells were co-transfected with HA-tagged ACK1 and FLAG-tagged H3 or FLAG-tagged Y99F mutant H3 expressing constructs. ACK I specifically phosphorylated H3 protein, but not the Y99F mutant protein (FIG. 3B). […]

SLC6A4 mRNA = SLC6A4 mRNA expression (real time RT-PCR); assay type: cell-based, human; conditions: inhibition of ACK1 by small molecule inhibitor
Method: The ratio of SLC6A4 to actin is shown. (FIG. 5D) JAR cells were treated with EGF ligand and ChIP was performed using pY99-H3 antibodies followed by quantitative PCR using primers corresponding to intron 2 (VNTR). […]
Applicant also identified for the first time that human and mouse serotonin transporter (SLC6A4 or SERT or 5-HTT) gene expression is regulated by ACK1. A novel mechanism was identified that is operational in SLC6A4 gene regulation. ACK1 deposits pY99-H3 epigenetic marks in promoter (5-HTTLPR) and intron 2 (VNTR) of SLC6A4 gene to regulate its transcription. […] Without being bound by theory, applicant believes that expression of Gabra6, Slc6a2, Slc6a4, Slc6a5 and Oxt genes as well as genes shown in Table 2 are also regulated by ACK1/pY99-H3 epigenetic activity/signaling.

[2] = test system: histone H3 Tyr99-phosphorylation (ACK1); assay: Histone H3 Tyr99-phosphorylation in JAR cells (immunoblotting); assay type: cell-based, human; conditions: EGF+AIM-100
Method: FIGS. 5A-5D show ACK1 deposits pY99-H3 epigenetic marks in SLC6A4 promoter and intron 2. (FIG. 5A) Lysates prepared from JAR cells treated with EGF ligand were subjected to immunoblotting with indicated antibodies. (FIG. 5B) Lysates prepared from JAR cells treated with EGF or AIM-100 were subjected to immunoblotting with indicated antibodies. (FIG. 5C) Total RNA was prepared from JAR cells untreated or treated with EGF ligand followed by quantitative RT-PCR using SLC6A4 and actin primers. The ratio of SLC6A4 to actin is shown. (FIG. 5D) JAR cells were treated with EGF ligand and ChIP was performed using pY99-H3 antibodies followed by quantitative PCR using primers corresponding to intron 2 (VNTR).
JAR cells are human placenta-derived epithelial cells that express SLC6A4 or SERT. Applicant first assessed presence of ACK1 signaling in JAR cells by treating these cells with EGF ligand. […] ACK1 activation was also reflected in histone H3 Tyr99-phosphorylation (FIG. SA, 2nd panel).
To validate critical role of ACK1 in histone H3 Tyr99-phosphoryation, JAR cells were treated with EGF or EGF+AIM-100.

T1 sequence (Q07912 whole entry): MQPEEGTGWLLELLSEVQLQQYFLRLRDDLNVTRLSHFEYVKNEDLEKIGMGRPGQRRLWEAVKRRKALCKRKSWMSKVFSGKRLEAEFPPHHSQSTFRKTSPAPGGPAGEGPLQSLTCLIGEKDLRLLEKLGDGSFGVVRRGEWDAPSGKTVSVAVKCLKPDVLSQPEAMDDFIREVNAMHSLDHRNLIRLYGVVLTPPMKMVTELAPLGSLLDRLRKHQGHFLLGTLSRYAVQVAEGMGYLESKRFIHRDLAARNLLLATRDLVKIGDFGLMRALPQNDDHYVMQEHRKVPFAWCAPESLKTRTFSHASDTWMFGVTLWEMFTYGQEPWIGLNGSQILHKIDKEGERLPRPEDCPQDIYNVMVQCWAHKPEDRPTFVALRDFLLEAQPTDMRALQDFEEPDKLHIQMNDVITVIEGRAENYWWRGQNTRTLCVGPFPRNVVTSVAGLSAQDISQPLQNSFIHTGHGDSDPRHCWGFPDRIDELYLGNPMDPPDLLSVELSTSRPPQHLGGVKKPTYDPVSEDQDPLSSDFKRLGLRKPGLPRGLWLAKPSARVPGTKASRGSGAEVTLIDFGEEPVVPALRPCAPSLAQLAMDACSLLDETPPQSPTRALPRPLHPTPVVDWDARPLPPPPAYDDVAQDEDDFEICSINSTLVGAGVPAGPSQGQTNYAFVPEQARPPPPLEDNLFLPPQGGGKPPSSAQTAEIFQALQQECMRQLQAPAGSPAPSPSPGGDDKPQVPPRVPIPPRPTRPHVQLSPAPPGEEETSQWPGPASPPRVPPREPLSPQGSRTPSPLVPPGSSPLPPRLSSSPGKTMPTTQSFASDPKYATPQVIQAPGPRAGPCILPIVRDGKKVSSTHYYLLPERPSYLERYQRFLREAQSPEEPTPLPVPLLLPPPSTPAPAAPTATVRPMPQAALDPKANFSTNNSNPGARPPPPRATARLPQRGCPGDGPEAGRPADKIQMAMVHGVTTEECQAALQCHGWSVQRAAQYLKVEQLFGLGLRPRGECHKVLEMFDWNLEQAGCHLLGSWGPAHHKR

With c1ccc(-c2oc3ncnc(NC[C@@H]4CCCO4)c3c2-c2ccccc2)cc1 [AIM-100] the “AR mRNA levels” value (AR mRNA) was “significantly suppressed”, the “H4 Tyr-phosphorylation by ACK1” value (ACK1) was “H4 Tyr-phosphorylation is abrogated” and the “concentration resulting in complete loss of pY99-H3” value ([1]; increasing concentrations of inhibitor) was 0.5 μM. For the same molecule, the “histone H3 Tyr99-phosphorylation” value ([1]; inhibitor 5 uM overnight, EGF ligand 20 min) was “complete loss of histone H3 Tyr99-phosphorylation; also recorded: suppressed histone H3 Tyr99-phosphorylation”, the “SLC6A4 mRNA expression” value (SLC6A4 mRNA) was “significant loss of SLC6A4 mRNA expression” and the “histone H3 Tyr99-phosphorylation” value [2] was “almost complete loss of histone phosphorylation”.
